Test [1] has as its system CHO. Briefly: The sensitizing capacity for colchicine treatment of multi drug resistance(MDR) in CHO cell at concentration 0.1(mg/L). Type of test: functional, Cricetulus griseus.
For test [2], the system named is CHO. Briefly: The sensitizing capacity for colchicine treatment of multi drug resistance (MDR) CHO cell at concentration 1.0(mg/L). Type of test: functional, Cricetulus griseus.
In test [3] the test system is CHO. Briefly: The sensitizing capacity for colchicine treatment of parental (PAR)CHO cells at concentration 1.0 (mg/L). Type of test: functional, Cricetulus griseus.
For test [4], the system named is CHO. Briefly: The sensitizing capacity of compound for colchicine treatment of parental (PAR)CHO cells was measured at concentration 0.1 (mg/L). The class given is functional, Cricetulus griseus.
Test [5] has as its system KB (human). Briefly: The sensitizing capacity of compound for colchicine treatment of multi drug resistance in KB cell was measured at concentration 1.0(mg/L).
For test [6], the system named is KB. Briefly: The sensitizing capacity of compound for colchicine treatment of multi drug resistance in KB cell was measured at concentration 3.0 (mg/L). Type of test: functional, Homo sapiens.
Test [7] concerns CHO. Briefly: Sensitization of colchicine treated parental (PAR)CHO cells, measured at concentration 0.1(mg/L). Type of test: functional, Cricetulus griseus.
Test [8] relates to KB. Briefly: The sensitizing capacity of compound for colchicine treatment of multi drug resistance in KB cell was measured at concentration 1.0(mg/L). The class given is functional, Homo sapiens.
Test [9] deals with KB. Briefly: The sensitizing capacity of compound for colchicine treatment of multi drug resistance in KB cell was measured at concentration 3.0(mg/L).

Non-standard residues stand in square brackets, D forms with d. Residues, ends and D or L forms follow the SMILES beside them. *: point of attachment. NMeI = CC[C@H](C)[C@H](NC)C(=O)O; NMeD = CN[C@@H](CC(=O)O)C(=O)O; NMeV = CN[C@H](C(=O)O)C(C)C; Pip = O=C(O)[C@@H]1CCCCN1; dLac = C[C@@H](O)C(=O)O; OtBu = CC(C)(C)O*

On to `CC[C@@H](C)[C@H]1C(=O)NCC(=O)N(C)[C@@H](C(C)C)C(=O)N[C@@H](Cc2ccc(OC)cc2)C(=O)O[C@H](C)C(=O)N2CCCC[C@H]2C(=O)N(C)[C@@H](C(C)C)C(=O)N[C@@H](C(C)C)C(=O)N(C)[C@H](CC(=O)O)C(=O)N(C)[C@@H]([C@@H](C)CC)C(=O)N1C`, for which the Activity in test [1] is on record as 1.1; in [2], 1.8; in [3] it was 7.6; in [4], 2.2.
As for `CC[C@@H](C)[C@H]1C(=O)NCC(=O)N(C)[C@@H](C(C)C)C(=O)N[C@@H](Cc2ccc(OC)cc2)C(=O)O[C@H](C)C(=O)N2CCCC[C@H]2C(=O)N(C)[C@@H](C(C)C)C(=O)N[C@@H](C(C)C)C(=O)N(C)[C@H](CC(=O)NC23CC4CC(CC(C4)C2)C3)C(=O)N(C)[C@@H]([C@@H](C)CC)C(=O)N1C`, the Activity is on record as 25 in test [1]; 1.1 in test [5]; 3.7 in test [6]; 177 in [2]; 8.9 in [3]; 7.3 in [7].
For the compound `CC[C@H](C)[C@H]1C(=O)NCC(=O)N(C)[C@@H](C(C)C)C(=O)N[C@@H](Cc2ccc(OC)cc2)C(=O)O[C@@H](C)C(=O)N2CCCC[C@H]2C(=O)N(C)[C@@H](C(C)C)C(=O)N[C@@H](C(C)C)C(=O)N(C)[C@@H](CC(=O)NC[Si](C)(C)C)C(=O)N(C)[C@@H]([C@@H](C)CC)C(=O)N1C`, the Activity in test [1] came to 81; in [8], 1.3; in [6], 123; in [2], 336; in test [3], 11; in test [7], 7.4.
Consider `CC[C@H](C)[C@H]1C(=O)NCC(=O)N(C)[C@@H](C(C)C)C(=O)N[C@@H](Cc2ccc(OC)cc2)C(=O)O[C@H](C)C(=O)N2CCCC[C@H]2C(=O)N(C)[C@@H](C(C)C)C(=O)N[C@@H](C(C)C)C(=O)N(C)[C@@H](CC(=O)OC(C)(C)C)C(=O)N(C)[C@@H]([C@@H](C)CC)C(=O)N1C` (cyclo(G[NMeV]Y(Me)[dLac][Pip][NMeV]V[NMeD](OtBu)[NMeI][NMeI])), for which the Activity in [1] was 3.8; in test [8], 1.1; in test [2], 135; in [3], 8.6; in test [7], 4.6. Moreover, the Chemosensitizing activity in test [9] came to 1.8.
On to `CC[C@@H](C)[C@H]1C(=O)NCC(=O)N(C)[C@@H](C(C)C)C(=O)N[C@@H](Cc2ccc(OC)cc2)C(=O)O[C@@H](C)C(=O)N2CCCC[C@H]2C(=O)N(C)[C@@H](C(C)C)C(=O)N[C@@H](C(C)C)C(=O)N(C)[C@H](CC(=O)NC(C)(C)C)C(=O)N(C)[C@@H]([C@@H](C)CC)C(=O)N1C`, for which the Activity in test [1] is recorded as 70; in [8] it was 1.5; in [6], 113; in test [2] it was 343; in [3], 12; in test [7], 8.4.
On to `CC[C@@H](C)[C@H]1C(=O)NCC(=O)N(C)[C@@H](C(C)C)C(=O)N[C@@H](Cc2ccc(OC)cc2)C(=O)O[C@@H](C)C(=O)N2CCCC[C@H]2C(=O)N(C)[C@@H](C(C)C)C(=O)N[C@@H](C(C)C)C(=O)N(C)[C@H](CC(=O)NCC(C)(C)C)C(=O)N(C)[C@@H]([C@@H](C)CC)C(=O)N1C`, for which the Activity in test [1] is recorded as 95; in test [8] it was 2.2; in test [6], 82; in test [2], 358; in test [3], 13; in test [7], 8.
Take `CC[C@@H](C)[C@H]1C(=O)NCC(=O)N(C)[C@@H](C(C)C)C(=O)N[C@@H](Cc2ccc(OC)cc2)C(=O)O[C@@H](C)C(=O)N2CCCC[C@H]2C(=O)N(C)[C@@H](C(C)C)C(=O)N[C@@H](C(C)C)C(=O)N(C)[C@H](CC(=O)NCCC(C)C)C(=O)N(C)[C@@H]([C@@H](C)CC)C(=O)N1C`: the Activity in [1] was 83; in test [8], 1.5; in test [6] it was 54; in test [2] it was 273; in [3], 8.6; in [7] it was 7.7.

These data come from ChEMBL document CHEMBL1127553, “Derivatives of a novel cyclopeptolide. 2. Synthesis, activity against multidrug resistance in CHO and KB cells in vitro, and structure-activity relationships” (1994).
